For this assay, the target named is T1, Human ATX protein (Homo sapiens, UniProt Q13822).
T1 construct: made in house
Description: ATX biochemical FRET assay with FS-3 substrate. The following applies: FS-3 2 μM, ATX 1.0 μg/mL, room temperature 2 hours, fluorescence 485/538 nm. The text has this:
ATX (Autotaxin) is a 125 KDa glycoprotein with lysophospholipase D (LPLD) activity that generates the bioactive lipid lysophosphatidic acid (LPA) from lysophosphatidylcholine (LPC). The ATX biochemical assay utilizes a FRET (fluorescence resonance energy transfer) technology platform. The fluorescence signal of FRET substrate FS-3 is quenched due to intra-molecular FRET of a fluorophore to a non-fluorescing quencher (Ferguson, C. G., et al., Org Lett. 2006 May 11; 8(10): 2023-2026, which is incorporated by reference in its entirety). ATX catalyzes the hydrolysis of the substrate which separates the dabsyl quencher from the fluorescein reporter, which becomes fluorescent. The reaction is monitored by a SpectraMax M5 (Molecular Devices, Sunnyvale, Calif.) with at excitation wavelength 485 nm and emission wavelength […].
Fatty acid free-BSA (Sigma A8806): 10 mg/ml, in H2O, stored at 4° C.
2×ATX assay buffer: 100 mM Tris, 280 mM NaCl, 10 mM KCl, 2 mM CaCl2, 2 mM MgCl2, pH 7.4.
Human ATX protein: expressed and purified in house. Stored at −80° C.
Substrate FS-3 (Echelon, L-2000): 100 μg in 77.74 μL H2O (1 mM stock), stored at −20° C.
384-well flat bottom plates—Corning #3575.
Compound dilution—All compounds were provided at 10 mM in 100% DMSO. In the first well, 2 μL of 10 mM compound was added to 78 μL of DMSO (1:40 dilution). In subsequent wells 3-fold dilution (total 10 dilutions) were performed.
1×ATX assay buffer was made up with a final concentration of 1 mg/mL fatty acid free-BSA using 2×ATX assay buffer, 10 mg/ml fatty acid free-BSA and ddH2O.
ATX protein was diluted with 1×ATX assay buffer to a concentration of 1.32 μg/mL (1.32×). 38 μL was added per well to the assay plate. The final concentration of ATX in the reaction as 1.0 μg/mL.
2 μL per well of compounds was transferred to provide the desired concentration. The plate was centrifuged, then incubated at room temperature for 30 minutes on the shaker.
FS-3 was diluted with 1×ATX assay buffer to a concentration of FS-3 of 10 μM (5×). Then, 10 μL was added per well to the assay plate. The final concentration of FS-3 in the reaction was 2 μM. The plate was centrifuged. The plate was kept shaking at room temperature for 2 hours. Because FS-3 substrate is light sensitive, plates were kept covered and protected from light.
Fluorescence was measured using SpectraMax M5 (excitation at 485 nm/emission at 538 nm, top read).

For the compound `O=C(O)C1CC2CCC(C1)N2C(=O)Cc1ccc2c(C(F)(F)F)c(O[C@H]3CC[C@@H](C(F)(F)F)CC3)ccc2c1` (relative stereo) [Example 117, 2-(2-(5-(trifluoromethyl)-6-((cis-4-(trifluoromethyl)cyclohexyl)oxy)naphthalene-2-yl)acetyl)-2-azabicyclo[1.2.3]octane-7-carboxylic acid], the IC50 is at most 500 nM.

Regarding `CC(c1ccc2c(C(F)(F)F)c(O[C@H]3CC[C@@H](C(F)(F)F)CC3)ccc2c1)N1C2CCC1CC(C(=O)O)C2` (relative stereo) [Example 122, 8-(1-(5-(trifluoromethyl)-6-((cis-4-(trifluoromethyl)cyclohexyl)oxy)-naphthalene-2-yl)ethyl)-8-azabicyclo[3.2.1]octane-3-carboxylic acid], the IC50 was at most 100 nM. For the compound `CC1(C)C2CCC1(C(=O)O)C(NCc1ccc3c(C(F)(F)F)c(O[C@H]4CC[C@@H](C(F)(F)F)CC4)ccc3c1)C2` (relative stereo) [Example 123, 3-(((5-(trifluoromethyl)-6-((cis-4-(trifluoromethyl)cyclohexyl)oxy)naphthalen-2-yl)methyl)amino)-7,7-dimethylbicyclo[2.2.1]heptane-4-carboxylic acid], the IC50 is at most 500 nM. For `CC(c1ccc2c(C(F)(F)F)c(O[C@H]3CC[C@@H](C)CC3)ccc2c1)N1C2CCC1CC(C(=O)O)C2` (relative stereo) [Example 124, 8-(1-(6-((cis-4-Methylcyclohexyl)oxy)-5-(trifluoromethyl)naphthalen-2-yl)ethyl)-8-azabicyclo[3.2.1]octane-3-carboxylic acid], the IC50 was at most 100 nM. The value for `C[C@H]1CC[C@@H](Oc2ccc3cc(C(=O)N4C5CCCC4CC(C(=O)O)C5)ccc3c2C(F)(F)F)CC1` (relative stereo) [Example 125, 9-(6-((cis-4-Methylcyclohexyl)oxy)-5-(trifluoromethyl)-2-naphthoyl)-9-azabicyclo[3.3.1]nonane-3-carboxylic acid] was at most 250 nM; that for `C[C@H]1CC[C@@H](Oc2ccc3cc(CN4C5COCC4CC(C(=O)O)C5)ccc3c2C(F)(F)F)CC1` (relative stereo) [Example 126, 9-((6-((cis-4-Methylcyclohexyl)oxy)-5-(trifluoromethyl)naphthalen-2-yl)methyl)-9-aza-7-oxa-bicyclo[3.3.1]nonane-3-carboxylic acid] was at most 250 nM. Turning to `CCC(c1ccc2c(C(F)(F)F)c(O[C@H]3CC[C@@H](C)CC3)ccc2c1)N1C2CCC1CC(C(=O)O)C2` (relative stereo) [Example 127, 8-(1-(6-((cis-4-Methylcyclohexyl)oxy)-5-(trifluoromethyl)naphthalen-2-yl)propyl)-8-azabicyclo[3.2.1]octane-3-carboxylic acid], the 50% inhibitory concentration (IC50) was at most 100 nM. The compound `CCC(c1ccc2c(C(F)(F)F)c(O[C@H]3CC[C@@H](C)CC3)ccc2c1)N1C2CCCC1CC(C(=O)O)C2` (relative stereo) [Example 128, 9-(1-(6-((cis-4-Methylcyclohexyl)oxy)-5-(trifluoromethyl)naphthalen-2-yl)propyl)-9-azabicyclo[3.3.1]nonane-3-carboxylic acid] came in with an IC50 of at most 100 nM. To `C[C@H]1CC[C@@H](Oc2ccc3cc(CN4C5CC(O)CC4CC(C(=O)O)C5)ccc3c2C(F)(F)F)CC1` (relative stereo) [Example 129, 9-((6-((cis-4-Methylcyclohexyl)oxy)-5-(trifluoromethyl)naphthalen-2-yl)methyl)-7-hydroxy-9-aza-bicyclo[3.3.1]nonane-3-carboxylic acid] belongs at most 500 nM; to `CC(c1ccc2c(C(F)F)c(O[C@H]3CC[C@@H](C)CC3)ccc2c1)N1C2CCCC1CC(C(=O)O)C2` (relative stereo) [Example 132, 9-(1-(5-(difluoromethyl)-6-((cis-4-methylcyclohexyl)oxy)naphthalen-2-yl)ethyl)-9-azabicyclo[3.3.1]nonane-3-carboxylic acid], at most 100 nM. To `CC(c1ccc2c(C(F)F)c(O[C@H]3CC[C@@H](C)CC3)ccc2c1)N1C2CCC1CC(C(=O)O)C2` (relative stereo) [Example 133, 8-(1-(5-(difluoromethyl)-6-((cis-4-methylcyclohexyl)oxy)naphthalen-2-yl)ethyl)-8-azabicyclo[3.2.1]octane-3-carboxylic acid] belongs at most 100 nM; to `C[C@H]1CC[C@@H](Oc2ccc3cc(CN4C5CCC4CC(C(=O)O)C5)ccc3c2C(F)F)CC1` (relative stereo) [Example 134, 8-(1-(5-(difluoromethyl)-6-((cis-4-methylcyclohexyl)oxy)naphthalen-2-yl)methyl)-8-azabicyclo[3.2.1]octane-3-carboxylic acid], at most 100 nM. `CCC(c1ccc2c(C(F)F)c(O[C@H]3CC[C@@H](C)CC3)ccc2c1)N1C2CCCC1CC(C(=O)O)C2` (relative stereo) [Example 135, 9-(1-(5-(difluoromethyl)-6-((cis-4-methylcyclohexyl)oxy)naphthalen-2-yl)propyl)-9-azabicyclo[3.3.1]nonane-3-carboxylic acid]: the IC50 is at most 100 nM. The value for `O=C(O)C1CC12CN(Cc1ccc3c(C(F)(F)F)c(O[C@H]4CC[C@@H](C(F)(F)F)CC4)ccc3c1)C2` (relative stereo) [Example 149, 2-((5-(trifluoromethyl)-6-((cis-4-(trifluoromethyl)cyclohexyl)oxy)naphthalen-2-yl)methyl)-2-azaspiro[3.2]hexane-5-carboxylic acid] was at most 250 nM; that for `O=C(O)C1CCCC2CCN(Cc3ccc4c(C(F)(F)F)c(O[C@H]5CC[C@@H](C(F)(F)F)CC5)ccc4c3)CC21` (relative stereo) [Example 150, N-((5-(trifluoromethyl)-6-((cis-4-(trifluoromethyl)cyclohexyl)oxy)naphthalen-2-yl)methyl)-decahydroisoquinoline-8-carboxylic acid] was at most 250 nM; that for `O=C(O)C1CCCC(C2CN(Cc3ccc4c(C(F)(F)F)c(O[C@H]5CC[C@@H](C(F)(F)F)CC5)ccc4c3)C2)C1` (relative stereo) [Example 159, N-(5-trifluoromethyl-6-(cis-4-trifluoromethyl-cyclohexyloxy)-naphthalen-2-ylmethyl)-3-(azetidine-3-yl)-cyclohexane-1-carboxylic acid] was at most 500 nM. To `O=C(O)C1CC2CCC1N2Cc1ccc2c(C(F)(F)F)c(O[C@H]3CC[C@@H](C(F)(F)F)CC3)ccc2c1` (relative stereo) [Example 165, 7-(5-trifluoromethyl-6-(cis-4-trifluoromethyl-cyclohexyloxy)-naphthalen-2-ylmethyl)-7-azabicyclo[2.2.1]heptane-2-carboxylic acid] belongs at most 250 nM; to `O=C(O)C1CC2CC(O)CC(C1)N2Cc1ccc2c(C(F)(F)F)c(O[C@H]3CC[C@@H](C(F)(F)F)CC3)ccc2c1` (relative stereo) [Example 169, 9-(5-trifluoromethyl-6-(cis-4-trifluoromethyl-cyclohexyloxy)-naphthalen-2-ylmethyl)-7-hydroxy-9-azabicyclo[3.3.1]nonane-3-carboxylic acid], at most 500 nM. `O=C1CC2CC(C(=O)O)CC(C1)N2Cc1ccc2c(C(F)(F)F)c(O[C@H]3CC[C@@H](C(F)(F)F)CC3)ccc2c1` (relative stereo) [Example 170, 9-(5-trifluoromethyl-6-(cis-4-trifluoromethyl-cyclohexyloxy)-naphthalen-2-ylmethyl)-7-oxo-9-azabicyclo[3.3.1]nonane-3-carboxylic acid] displayed an IC50 of at most 500 nM. On to `CC[C@H]1CC[C@@H](Oc2ccc3cc(CN4C5CCCC4CC(C(=O)O)C5)ccc3c2C(F)(F)F)CC1` (relative stereo) [Example 171, 9-((6-((cis-4-ethylcyclohexyl)oxy)-5-(trifluoromethyl)naphthalen-2-yl)methyl)-9-azabicyclo[3.3.1]nonane-3-carboxylic acid], for which the IC50 is at most 100 nM.

Take `CC[C@H]1CC[C@@H](Oc2ccc3cc(CN4C5CCC4CC(C(=O)O)C5)ccc3c2C(F)(F)F)CC1` (relative stereo) [Example 172, 8-((6-((cis-4-ethylcyclohexyl)oxy)-5-(trifluoromethyl)naphthalen-2-yl)methyl)-8-azabicyclo[3.2.1]octane-3-carboxylic acid]: the IC50 is at most 250 nM.

Source of the values: patent publication US9944666B2, “Compounds that are S1P modulating agents and/or ATX modulating agents” (BIOGEN MA INC., priority 2012, dated 2018).
